Measured values as given in US10785975B2, “Water and feed antimicrobial preservative” (priority 2009, dated 2020).
Where two headings read alike, the source gives them in different places.

Key:
[1] = tested on: Salmonella typhimurium; experiment: Example 2: effect of carbon chain length of individual organic acids on antimicrobial activity in water; assay type: cell-based; set-up: MIC at 4 HR / MIC at 24 FIR: unit not given here; settings: for MIC at 4 HR / MIC at 24 FIR: Minimum Inhibitory Concentration of Organic Acids against Salmonella, by linear regression; for MIC at 24 FIR: 24 hours; for killing at 0.05 % / killing at 0.075 % / killing at 0.1 % / killing at […]: Salmonella enterica, TYPHIMURIUM
Protocol: 100 ul of a nutrient broth culture of Salmonella typhimurium was added to each dilution tube. After addition, tubes were vortexed and allowed to stand. At 4 and 24 hours after addition of the inoculum, 100 ul of the solution was plated on agar (triplicate plates). Plates were incubated at 37° C. for 24 hours prior to enumeration. The minimum effective dose of each acid was be determined by linear regression: […]

[2] = tested on: Salmonella typhimurium; experiment: Example 1: effect of pH buffering of acetic and propionic acid on antimicrobial activity in water; assay type: cell-based; settings: for MIC at 4 Hr / MIC at 24 HR: Minimum Inhibitory Concentrations, by linear regression over 0.025-0.1% acid solutions
Protocol: Propionic and acetic acids were buffered with ammonium hydroxide to pHs ranging from 1 to 7. Acid contents of the buffered solutions were determined by a weight to weight ratio calculation to obtain the same acid content in the test solutions. […] The pHs of the deionized water solutions were recorded and any problems with solubility noted.
100 ul of a nutrient broth culture of Salmonella typhimurium was added to each dilution tube. After addition, tubes were vortexed and allowed to stand. At 4 and 24 hours after addition of the inoculum, 100 ul of the solution was plated on Standard Plate agar (triplicate plates). Plates were incubated at 37° C. for 24 hours prior to enumeration. The minimum effective dose of each acid was determined by linear regression.

[3] = Product Conc. 0.025 (% acid solution in water), 4 hr
[4] = Product Conc. 0.025 (% acid solution in water), 24 hr
[5] = Product Conc. 0.05 (% acid solution in water), 4 hr
[6] = Product Conc. 0.05 (% acid solution in water), 24 hr
[7] = Product Conc. 0.075 (% acid solution in water), 4 hr
[8] = Product Conc. 0.075 (% acid solution in water), 24 hr
[9] = Product Conc. 0.1 (% acid solution in water), 4 hr
[10] = Product Conc. 0.1 (% acid solution in water), 24 hr
[11] = 4 h, read-out: Salmonella at time Interval 4 hr % reduction
[12] = 24 h, read-out: Salmonella at time Interval 24 hr % reduction
[13] = Product Conc. 0.025 (% acid solution in water), 4 hr, read-out: Salmonella at time Interval 4 hr % reduction
[14] = Product Conc. 0.025 (% acid solution in water), 24 hr, read-out: Salmonella at time Interval 24 hr % reduction
[15] = Product Conc. 0.05 (% acid solution in water), 4 hr, read-out: Salmonella at time Interval 4 hr % reduction
[16] = Product Conc. 0.05 (% acid solution in water), 24 hr, read-out: Salmonella at time Interval 24 hr % reduction
[17] = Product Conc. 0.075 (% acid solution in water), 4 hr, read-out: Salmonella at time Interval 4 hr % reduction
[18] = Product Conc. 0.075 (% acid solution in water), 24 hr, read-out: Salmonella at time Interval 24 hr % reduction
[19] = Product Conc. 0.1 (% acid solution in water), 4 hr, read-out: Salmonella at time Interval 4 hr % reduction
[20] = Product Conc. 0.1 (% acid solution in water), 24 hr, read-out: Salmonella at time Interval 24 hr % reduction
[21] = Product Conc. 0.025 (% acid solution in water)
[22] = Product Conc. 0.05 (% acid solution in water)
[23] = Product Conc. 0.075 (% acid solution in water)
[24] = Product Conc. 0.1 (% acid solution in water)

Row | Structure (SMILES) | MIC at 4 HR ([1]; 4 hr) | MIC at 24 FIR [1] | Salmonella at time Interval 4 hr cfu/g [1, 3] | Salmonella at time Interval 24 hr cfu/g [1, 4] | Salmonella at time Interval 4 hr cfu/g [1, 5] | Salmonella at time Interval 4 hr % reduction [2, 21] | Salmonella at time Interval 4 hr cfu/g [2, 21] | Salmonella at time Interval 24 hr % reduction [2, 21] | Salmonella at time Interval 24 hr cfu/g [2, 21] | Salmonella at time Interval 4 hr % reduction [2, 22] | Salmonella at time Interval 4 hr cfu/g [2, 22] | Salmonella at time Interval 24 hr % reduction [2, 22] | Salmonella at time Interval 24 hr cfu/g [2, 22] | Salmonella at time Interval 4 hr % reduction [2, 23] | Salmonella at time Interval 4 hr cfu/g [2, 23] | Salmonella at time Interval 24 hr % reduction [2, 23] | Salmonella at time Interval 24 hr cfu/g [2, 23] | Salmonella at time Interval 4 hr % reduction [2, 24] | Salmonella at time Interval 24 hr % reduction [2, 24] | Salmonella at time Interval 24 hr cfu/g [2, 24] | other results
1 | CCCCCC(=O)O [Caproic acid] | 0.103 | 0.063 | 1267 cfu/g | 30 cfu/g | 1433 cfu/g |  |  |  |  |  |  |  |  |  |  |  |  |  |  |  | Salmonella at time Interval 24 hr cfu/g [1, 6]: 7 cfu/g; Salmonella at time Interval 4 hr cfu/g [1, 7]: 523 cfu/g; Salmonella at time Interval 24 hr cfu/g [1, 8]: 0 cfu/g; Salmonella at time Interval 4 hr cfu/g [1, 9]: 27 cfu/g; Salmonella at time Interval 24 hr cfu/g [1, 10]: 0 cfu/g; killing at 0.05 % [1, 11]: 10%; killing at 0.075 % [1, 11]: 67%; killing at 0.1 % [1, 11]: 98%; killing at […] [1, 11]: 21%; killing at 0.05 % [1, 12]: 100%; killing at 0.075 % [1, 12]: 100%; killing at 0.1 % [1, 12]: 100%; killing at […] [1, 12]: 98%
2 | CCCCCCCC(=O)O [Caprylic acid/KOH, Caprylic acid] | 0.109 | 0.090 | 1567 cfu/g | 1400 cfu/g | 1333 cfu/g |  |  |  |  |  |  |  |  |  |  |  |  |  |  |  | Salmonella at time Interval 24 hr cfu/g [1, 6]: 797 cfu/g; Salmonella at time Interval 4 hr cfu/g [1, 7]: 1100 cfu/g; Salmonella at time Interval 24 hr cfu/g [1, 8]: 77 cfu/g; Salmonella at time Interval 4 hr cfu/g [1, 9]: 0 cfu/g; Salmonella at time Interval 24 hr cfu/g [1, 10]: 0 cfu/g; killing at […] [1, 13]: 2%; killing at […] [1, 14]: 18%; killing at 0.05 % [1, 15]: 17%; killing at 0.05 % [1, 16]: 53%; killing at 0.075 % [1, 17]: 31%; killing at 0.075 % [1, 18]: 95%; killing at 0.1 % [1, 19]: 100%; killing at 0.1 % [1, 20]: 100%
3 | CCCCCCCCCCCC(=O)O [Lauric acid/KOH, Lauric acid] | 0.072 | <0.025 | 670 cfu/g | 20 cfu/g | 0 cfu/g |  |  |  |  |  |  |  |  |  |  |  |  |  |  |  | Salmonella at time Interval 24 hr cfu/g [1, 6]: 0 cfu/g; Salmonella at time Interval 4 hr cfu/g [1, 7]: 0 cfu/g; Salmonella at time Interval 24 hr cfu/g [1, 8]: 0 cfu/g; Salmonella at time Interval 4 hr cfu/g [1, 9]: 0 cfu/g; Salmonella at time Interval 24 hr cfu/g [1, 10]: 0 cfu/g; killing at […] [1, 13]: 58%; killing at […] [1, 14]: 99%; killing at 0.05 % [1, 15]: 100%; killing at 0.05 % [1, 16]: 100%; killing at 0.075 % [1, 17]: 100%; killing at 0.075 % [1, 18]: 100%; killing at 0.1 % [1, 19]: 100%; killing at 0.1 % [1, 20]: 100%
4 | CCC(=O)O [Propionic pH 4, Propionic acid] |  |  |  |  |  | 9% | 1367 cfu/g | 48% | 615 cfu/g | 20% | 1200 cfu/g | 75% | 293 cfu/g | 37% | 943 cfu/g | 84% | 187 cfu/g | 22% | 86% | 163 cfu/g | MIC at 4 Hr ([2]; pH 4): 0.237; MIC at 24 HR ([2]; pH 4): 0.091
5 | CCC(=O)O [Propionic pH 5, Propionic acid] |  |  |  |  |  | 0% | >1505 cfu/g | 33% | 793 cfu/g | 7% | 1400 cfu/g | 20% | 943 cfu/g | 22% | 1167 cfu/g | 47% | 630 cfu/g | 46% | 53% | 557 cfu/g | MIC at 4 Hr ([2]; pH 5): 0.170; MIC at 24 HR ([2]; pH 5): 0.165; Salmonella at time Interval 4 hr cfu/g [2, 24]: 817 cfu/g
6 | CCC(=O)O [Propionic pH 6, Propionic acid] |  |  |  |  |  | 0% | >1505 cfu/g | 0% | 1450 cfu/g | 7% | 1400 cfu/g | 10% | 1067 cfu/g | 0% | >1505 cfu/g | 0% | 1233 cfu/g | 0% | 0% | 1333 cfu/g | Salmonella at time Interval 4 hr cfu/g [2, 24]: 1700 cfu/g
7 | CCC(=O)O [Propionic pH 7, Propionic acid] |  |  |  |  |  | 0% | >1505 cfu/g | 0% | 1667 cfu/g | 0% | 1700 cfu/g | 0% | 1367 cfu/g | 0% | >1505 cfu/g | 0% | 1700 cfu/g | 0% | 0% | 1367 cfu/g | Salmonella at time Interval 4 hr cfu/g [2, 24]: 1600 cfu/g
